From patent US20120010289A1, “METHOD FOR PLACENTAL EXFOLIATION USING OXO-ARACHIDONIC ACID OR THE LIKE” (Inc Admin Agcy Natl Agric & Food Res. Organization, priority 2007, published 2012)

Assays:
[1] = test system: cultured fibroblasts derived from the placenta (MMP-producing cells); assay: Cell exfoliation assay to search for MMP activators; type: cell-based; settings: fibroblasts from bovine fetal placenta, monolayer treated with cortisol, compound added; FIG. 2 and FIG. 3
Description: The in vitro pharmacological evaluation is exemplified by a method using cultured fibroblasts derived from the placenta (MMP-producing cells). First, the composition for placental exfoliation of the present invention is added to a culture medium of the concerned cultured fibroblasts. After the addition, the cells are cultured for a fixed period of time.
Therefore, cultured fibroblasts derived from the placenta (MMP-producing cells) were used to search for MMP activators.
Since in vivo MMP-2 is produced from fibroblasts, fibroblasts were prepared from bovine fetal placenta. A fixed amount of cells were seeded on the culture plate, and were treated with cortisol after the monolayer formation. Further, the MMP activator candidate compounds were added thereto.

[2] = test system: MMP; assay: MMP activity in released placenta by gelatin zymography; type: in vivo, cow; settings: PG-induction+oxo placenta compared with normal parturition and placental retention; FIG. 5
Description: In the method using gelatin zymography, first, the composition for MMP activation of the present invention is brought into contact with MMP-producing cells. After the incubation for a fixed time, the cells are lysed to make a protein solution, which is then subjected to an electrophoresis using a SDS polyacrylamide electrophoresis gel containing a gelatin (MMP substrate). After the migration, the temperature was kept for a fixed time to progress the enzyme reaction, followed by staining of undegraded gelatin remaining in the gel.
The MMP activity in released placenta was analyzed. The samples were as follows: a placenta released from a mother cow of normal parturition (without specific treatment) (expressed as “normal parturition” in FIG. 5); a placenta from a mother cow which was subjected to the fetal delivery induction with a prostaglandin but suffered from placental retention (expressed as “PG-induced parturition” in FIG. 5); a placenta released from a mother cow which was subjected to the fetal delivery induction with a prostaglandin and the subsequent placental release induction with a 12-oxoarachidonic acid (expressed as “PG-induction+oxo” in FIG. 5); and a placenta from a mother cow which had naturally-occurring placental retention (expressed as “placental retention cow” in FIG. 5).
The MMP activity was measured using gelatin zymography. […]

[3] = test system: pregnant Holstein cow; assay: Placental exfoliation by administration of 12-oxoarachidonic acid to a cow after prostaglandin-induced fetal delivery; type: in vivo
Description: The in vivo pharmacological evaluation is exemplified by a method using cows which have delivered fetuses by means of the single administration of a prostaglandin. First, the composition for placental exfoliation of the present invention is administered to cows after the fetal delivery.
In order to induce the fetal delivery, a formulation (10 ml) containing a naturally-occurring prostaglandin (50 mg) was intramuscularly injected into the hip of a pregnant Holstein cow (dairy cow) (body weight 779 kg) a week prior to the due date. Moreover, a cow after the third calving was again administered with the prostaglandin after 12 hours from the first injection thereof (evening on the first day).
The mother cow and the newborn calf were both healthy.
Next, after 4 hours from the fetal delivery, a saline solution (15 ml) containing 12-oxoarachidonic acid (1 mg) was intrajugularly injected into the mother cow which had delivered a fetus. After about 6 hours from the injection, the whole amount of the placenta was released from the mother cow. FIG. 4 presents photographs showing the manner of such parturition. […] In cases of the non-administration of 12-oxoarachidonic acid, the placenta was not released from the mother cow, and the placental retention occurred.

SMILES	cell exfoliation activity (MMP activation ability) [1]	further results
CCCCC/C=C\C/C=C\CCCCCCCC(=O)O [linoleic acid]	weak activity	
CCCCC/C=C\C[C@@H](O)/C=C/C=C\C/C=C\CCCC(=O)O [12(R)-hydroxyarachidonic acid]	no cell exfoliation activities	
CCCCC/C=C\C[C@@H](/C=C/C=C\C/C=C\CCCC(=O)O)OO [12(S)-hydroperoxyarachidonic acid]	weak cell exfoliation activities	
CCCCC/C=C\C/C=C\C/C=C\CCCCC(=O)O [γ-linolenic acid]	medium activity	
CCCCC/C=C\C[C@H](O)/C=C/C=C\C/C=C\CCCC(=O)O [12(S)-hydroxyarachidonic acid]	no cell exfoliation activities	
CC/C=C\C/C=C\C/C=C\CCCCCCCC(=O)O [α-linolenic acid]	weak activity	
CC/C=C\C/C=C\C/C=C\C/C=C\CCCCC(=O)O [stearidonic acid]	weak activity	
CCCCC/C=C\CC(=O)/C=C/C=C\C/C=C\CCCC(=O)O [12-oxoarachidonic acid]	showed a cell exfoliation activity at a lower concentration than that of the arachidonic acid itself	MMP pattern (proMMP activity) of released placenta [2]: MMP pattern very close to that of the placenta released from the cow of normal parturition; time from injection to release of the whole amount of the placenta ([3]; 1 mg in 15 ml saline, intrajugular, 4 hours after fetal delivery, Holstein cow 779 kg): about 6 hours; reproductive function of the postexperimental mother cow ([3]; after 1 mg intrajugular 12-oxoarachidonic acid): reproductive function was not affected
CCCCC/C=C\C/C=C\C/C=C\CCCCCCC(=O)O [dihomo-γ-linolenic acid]	weak activity	
CC/C=C/C/C=C/C/C=C/C/C=C/CCCCCCC(=O)O [ω-3-arachidonic acid]	weak activity	
CCCCC/C=C\C/C=C\C/C=C\C/C=C\CCCC(=O)O [arachidonic acid]	confirmed to have a cell exfoliation activity	
